From patent US10138271B2, “Native and agonist CTL epitopes of the MUC1 tumor antigen” (The United States of America, as represented by the …, priority 2012, dated 2018)
Each block holds one sequence with its values, some of them ahead of it.

Tests used:
[1] = test system: MUC1-C-specific T-cell lines; assay: IFN-γ release by MUC1-C-specific T-cell lines stimulated with peptide-pulsed autologous B cells (ELISA); format: cell-based, human; conditions: for IFN-γ: T-cell line generated with and stimulated by the same peptide, APC:T 2:1, 24 hour supernatant; for IFN-γ production by agonist peptide-specific T-cell line, agonist versus native peptide: at each peptide concentration, FIG. 1A-C
Experimental: Supernatants of T cells stimulated for 24 h with peptide-pulsed autologous DCs or autologous EBV-transformed B cells in IL-2-free medium at various peptide concentrations were screened for secretion of IFN-γ by ELISA kit (BioSource International, Camarillo, Calif.). Results were expressed in pg/mL.
To evaluate the specificity of these T-cell lines, an IFN-γ release assay was performed using irradiated autologous B cells pulsed with the corresponding peptide. T cells were stimulated with irradiated autologous B cells pulsed with corresponding peptide at an APC:T cell ratio of 2:1. T cells were used at a concentration of 5×10^5/mL. 24 hour culture supernatants were collected and screened for secretion of IFN-γ. T-1-P1172(1Y), T-1-P1177(10V), and T-2-P1240(1Y) cell lines produced higher levels of IFN-γ compared to T-cell lines generated using corresponding native peptides (Table 2).
Studies were then conducted to compare the ability of the native peptides and the agonist peptides, at various concentrations, to activate the agonist peptide-specific T cells.
An additional T-cell line was then established from the PBMCs of another patient (patient 3) with colon cancer from the same clinical trial described above, using P1177 and P1177(10V), designated T-3-P1177 and T-3-P1177(10V), respectively.

T-VNTR-5 T cell line = assay: IFN-γ production by VNTR-5-specific T cell line stimulated with agonist or native peptide; format: cell-based, human; conditions: APC:T 3:1, 24 hours
Experimental: (§1) T-VNTR-3 (VNTR-3 agonist peptide-specific T cell line) and T-VNTR-5 (VNTR-5 agonist peptide-specific T cell line) were separately cultured at a concentration of 1×10^5 cells/mL. The ratio of APC:T cells was 3:1. The agonist or native peptides were used at various concentrations (see Tables 14 and 15). The supernatents were collected after 24 hours, and the amount of IFN-γ was determined. The VNTR-3- and VNTR-5-specific T cell lines stimulated with agonist peptides produced higher levels of IFN-γ as compared to stimulation with native peptides (see Tables 14 and 15).

HLA-A2 molecules [2] = target: T1, HLA-A2 molecules (Homo sapiens, UniProt P04439, D140Y/D185E/D98H/E176V/E277Q/G131W/G231S/I119V/I121R/I166T/I218V/L300P/L318F/N151K/N90K/P208A/P217A/Q86G/Q94H/R138H/R169H/T345S); assay: Peptide binding to HLA-A2: upregulation of HLA-A2 expression on T2/T2A2 cells by flow cytometry; conditions: for T2 Binding (mean fluorescence intensity): peptide 12.5 μg/mL; for T2A2 Binding (mean fluorescence intensity): peptide 25 μg/mL
T1 construct: endogenous in cells; host or cells: T2 / T2A2 cells (174CEM-T2, transport deletion mutant)
Experimental: Single-color flow cytometric analysis has been previously described in Guadagni et al., Cancer Res., 50: 6248-6255 (1990). Briefly, cells were washed 3 times with cold Ca2^+- and Mg2^+-free Dulbecco's phosphate-buffered saline (PBS), and then stained for 1 h at 4° C. using FITC-conjugated monoclonal antibodies anti-HLA-A2,28 (One Lambda, Inc., Canoga Park, Calif.), anti-CD3, anti-CD4, and anti-CD8 (BD Biosciences, San Jose, Calif.). Mouse IgG2a, k FITC (BD Biosciences) was used as isotype control. The cells were then washed 3 times with cold Ca2^+- and Mg2^+-free PBS, resuspended in the same buffer, and immediately analyzed using a FACScan (Becton Dickinson, Franklin Lakes, N.J.) and CellQuest software (BD Biosciences). Results were generated from data gathered from 10,000 live cells and expressed as percent-positive cells and mean fluorescence intensity (MFI). The MFI value was collected in log scale and used to express levels of fluorescence determined by measuring the average for all cells in the fluorescence dot plot.

T-VNTR-3 T cell line = assay: IFN-γ production by VNTR-3-specific T cell line stimulated with agonist or native peptide; format: cell-based, human; conditions: APC:T 3:1, 24 hours
Experimental: as §1

HLA-A2 molecules [3] = target: T1, HLA-A2 molecules; assay: Stability of peptide/HLA-A2 complexes (percentage of remaining complexes over time); format: binding; conditions: time points 0, 2, 4, 6, 8, 10 h
Experimental: The stability of the peptide/HLA-A2 complexes of the analogs and native peptides were analyzed by determining the percentage of the remaining complexes on HLA-A2 molecules at different time points (0, 2, 4, 6, 8, and 10 h).
The stability of the peptide/HLA-A2 complexes of the analogs and native peptides was analyzed by determining the percentage of the remaining complexes on HLA-A2 molecules at different time points (0, 2, 4, 6, 8, and 10 h).

Sequence: ALAIVYLIAL [Peptide P1172]
IFN-γ [1]: 158.3 pg/mL

Sequence: APDTRPAPG [VNTR-4]
IFN-γ (T-VNTR-5 T cell line; peptide 1.56 μg/mL): 19.8 pg/mL
IFN-γ (T-VNTR-5 T cell line; peptide 3.13 μg/mL): 53.2 pg/mL
IFN-γ (T-VNTR-5 T cell line; peptide 6.25 μg/mL): 63.1 pg/mL
IFN-γ (T-VNTR-5 T cell line; peptide 12.5 μg/mL): 109.3 pg/mL
IFN-γ (T-VNTR-5 T cell line; peptide 25 μg/mL): 117.9 pg/mL

T2 Binding (mean fluorescence intensity) (HLA-A2 molecules [2]): 481.93 MFI
T2A2 Binding (mean fluorescence intensity) (HLA-A2 molecules [2]): 485.3 MFI
Sequence: GLFDEYLEMV [NGEP (P703)]

T2 Binding (mean fluorescence intensity) (HLA-A2 molecules [2]): 109.1 MFI
T2A2 Binding (mean fluorescence intensity) (HLA-A2 molecules [2]): 83.8 MFI
Sequence: HLFGYSWYK [CAP-7]

Sequence: SLSYTNPAV [Peptide P1240]
IFN-γ [1]: 437.3 pg/mL

Sequence: STAPPAHGV [VNTR-2]
IFN-γ (T-VNTR-3 T cell line; peptide 1.56 μg/mL): 29.0 pg/mL
IFN-γ (T-VNTR-3 T cell line; peptide 3.13 μg/mL): 75.8 pg/mL
IFN-γ (T-VNTR-3 T cell line; peptide 6.25 μg/mL): 127.0 pg/mL
IFN-γ (T-VNTR-3 T cell line; peptide 12.5 μg/mL): 203.0 pg/mL
IFN-γ (T-VNTR-3 T cell line; peptide 25 μg/mL): 261.0 pg/mL

Stability of peptide/HLA-A2 complexes, analog versus native peptide (HLA-A2 molecules [3]): No differences
Sequence: YLAIVYLIAL [P1172(1Y)]
IFN-γ [1]: 605.0 pg/mL
IFN-γ production by agonist peptide-specific T-cell line, agonist versus native peptide [1]: greatest level of IFN-γ production

Sequence: YLAPPAHGV [VNTR-3]
Stability of peptide/HLA-A2 complexes, analog versus native peptide (HLA-A2 molecules [3]): greater avidity for class I molecules than the native peptides
IFN-γ (T-VNTR-3 T cell line; peptide 1.56 μg/mL): 304.9 pg/mL
IFN-γ (T-VNTR-3 T cell line; peptide 3.13 μg/mL): 457.6 pg/mL
IFN-γ (T-VNTR-3 T cell line; peptide 6.25 μg/mL): 685.3 pg/mL
IFN-γ (T-VNTR-3 T cell line; peptide 12.5 μg/mL): 766.1 pg/mL
IFN-γ (T-VNTR-3 T cell line; peptide 25 μg/mL): 771.5 pg/mL

Sequence: YLDTRPAPV [VNTR-5]
Stability of peptide/HLA-A2 complexes, analog versus native peptide (HLA-A2 molecules [3]): greater avidity for class I molecules than the native peptides
IFN-γ (T-VNTR-5 T cell line; peptide 1.56 μg/mL): 205.1 pg/mL
IFN-γ (T-VNTR-5 T cell line; peptide 3.13 μg/mL): 322.0 pg/mL
IFN-γ (T-VNTR-5 T cell line; peptide 6.25 μg/mL): 452.9 pg/mL
IFN-γ (T-VNTR-5 T cell line; peptide 12.5 μg/mL): 496.2 pg/mL
IFN-γ (T-VNTR-5 T cell line; peptide 25 μg/mL): 543.7 pg/mL

Sequence: YLIALAVCQC [Peptide P1177]
IFN-γ [1]: 666.4 pg/mL

Sequence: YLIALAVCQV [P1177(10V)]
Stability of peptide/HLA-A2 complexes, analog versus native peptide (HLA-A2 molecules [3]): greater avidity for class I molecules than the native peptide P1177 at each time point
IFN-γ [1]: >1,000 pg/mL
IFN-γ production by agonist peptide-specific T-cell line, agonist versus native peptide [1]: greatest level of IFN-γ production

Stability of peptide/HLA-A2 complexes, analog versus native peptide (HLA-A2 molecules [3]): No differences
Sequence: YLSYTNPAV [P1240(1Y)]
IFN-γ [1]: >1,000 pg/mL
IFN-γ production by agonist peptide-specific T-cell line, agonist versus native peptide [1]: greatest level of IFN-γ production
